# Assay results: publication PMC11858513, “Antibiofilm Activities of Tritrpticin Analogs Against Pathogenic Pseudomonas aeruginosa PA01 Strains” (Molecules, 2025)
# Residues, ends and D or L forms follow the SMILES beside them.
# Columns and labels:
# [1] = system: P. aeruginosa PAO1 GFP; assay: MIC against planktonic cells, absorbance at 600 nm; format: cell-based, Pseudomonas aeruginosa; conditions: Table 2, BM2 medium, absorbance 600 nm, mean of three biological replicates
# Experimental: (§1) Figure 1 The MIC (A), MBIC (B) and MBEC (C) values for the tritrpticin analog peptides were assessed against Pa PAO1 GFP. The MIC values were determined by measuring the absorbance of bacterial cells at 600 nm. The MBIC and MBEC values were determined by recording the fluorescence at 480 nm and 530 nm from the biofilms of GFP-expressing PAO1. Three biological replicates were run for each test sample, and the mean was calculated for the recorded absorption or fluorescence values. In the graphs, the error bars represent the standard deviation (±SD).
# (§2) Figure 2 The MIC (A), MBIC (B) and MBEC (C) values for the tritrpticin-Lys derivative peptides were assessed against Pa PAO1 GFP. The MIC values were determined by measuring the absorbance of bacterial cells at 600 nm. The MBIC and MBEC values were determined by recording the fluorescence at 480 nm and 530 nm from the biofilms of GFP-expressing PAO1. Three replicates were run for each sample, the values were averaged and the error bars represent the standard deviation (±SD).
# (§3) The methods to determine the MIC, MBIC and MBEC have been described in detail in our previous publication. The green fluorescent protein (GFP)-producing P. aeruginosa and S. aureus strains that were used in this work were also described in the earlier publication. Fluorescence detection was used as the main method to estimate the number of cells entrapped in the biofilm matrix. The methodology used for evaluation of the antibiofilm properties against an original Pseudomonas PA01 strain by crystal violet dye staining and the use of the Calgary biofilm device has been described elsewhere. The regular PA01 strain was provided by Dr. J. Harrison, Calgary. All measurements were carried out on an Eppendorf AF2200 plate reader. Every 96-well plate included controls for bacterial cell growth without peptide treatment and media alone. All measurements were carried out in triplicate, and the values in the figures represent the average and the error bars are standard deviation.
# [2] = system: P. aeruginosa PAO1 GFP; assay: MBIC, prevention of biofilm formation, GFP fluorescence method; format: cell-based, Pseudomonas aeruginosa; conditions: Table 2, BM2 medium, mean of three biological replicates
# Experimental: as §1, §2, §3
# [3] = system: P. aeruginosa PAO1 GFP; assay: MBEC, biofilm eradication, GFP fluorescence method; format: cell-based, Pseudomonas aeruginosa; conditions: Table 2, BM2 medium, mean of three biological replicates
# Experimental: as §1, §2, §3
# [4] = system: S. aureus GFP; assay: MIC against planktonic cells, absorbance at 600 nm; format: cell-based, Staphylococcus aureus; conditions: Table 4; Sa GFP, 10% TSB and 0.1% glucose; absorbance 600 nm; mean of three biological replicates
# Experimental: as §1, with “3” for “1”, “Sa” for “Pa PAO1”, “Sa.” for “PAO1.”
# as §3
# [5] = system: S. aureus GFP; assay: MBIC, GFP fluorescence method; format: cell-based, Staphylococcus aureus; conditions: Table 4, Sa GFP, 10% TSB and 0.1% glucose, mean of three biological replicates
# Experimental: as §1, with “3” for “1”, “Sa” for “Pa PAO1”, “Sa.” for “PAO1.”
# as §3
# [6] = system: S. aureus GFP; assay: MBEC, GFP fluorescence method; format: cell-based, Staphylococcus aureus; conditions: Table 4, Sa GFP, 10% TSB and 0.1% glucose, mean of three biological replicates
# Experimental: as §1, with “3” for “1”, “Sa” for “Pa PAO1”, “Sa.” for “PAO1.”
# as §3
# [7] = system: S. aureus GFP; format: cell-based, Staphylococcus aureus; conditions: Table 4; Sa GFP; lowest concentration of peptide with no bacterial growth seen on the spot agar plate
# Source text: as §3
# [8] = system: P. aeruginosa PAO1; format: cell-based, Pseudomonas aeruginosa; conditions: Table 5; regular PAO1 (no GFP), 1x BM2; absorbance 600 nm; mean of three biological replicates
# Experimental: (§4) Figure 4 The MIC (A), MBIC (B) and MBRC (C) values for the peptides were assessed against P. aeruginosa PAO1 in the presence of 1× BM2. The inhibition of planktonic cells, the inhibition of biofilm cells and the reduction in biofilm cells were determined for the peptides by recording of the planktonic cells at 600 nm and quantification of biofilms formed by Pa PAO1 using crystal violet at 595 nm, respectively. Three biological replicates were run for each test sample, and the mean was calculated for the recorded absorption values. Data points with error bars indicate the standard deviation (±SD).
# (§5) Figure 6 The MIC (A), MBIC (B) and MBEC (C) values for the tritrpticin-Lys derivatives against P. aeruginosa PAO1 were assessed by the crystal violet (CV) assay for the measurement of inhibition of biofilm formation and eradication of biofilm cells, respectively. The biofilm cells were rinsed, stained with 0.1% crystal violet for 15 min and then rinsed again. The CV was released from biofilm cells by the addition of 95% ethanol and quantified by reading on a spectrometer at 595 nm. Three replicates were run for each sample, the values were averaged and the error bars represent the standard deviation (±SD).
# as §3
# [9] = system: P. aeruginosa PAO1; format: cell-based; conditions: for MBRC (CV at 595 nm) LD50: PAO1; for MBIC (CV at 595 nm) LD50 / MBIC (CV at 595 nm) LD90 / MBRC (CV at 595 nm) LD90: Table 5, PAO1, 1x BM2, crystal violet at 595 nm, mean of three biological replicates; for MBRC (CV at 595 nm) LD90: minimum biofilm reduction concentration
# Experimental: (§6) We note the close agreement with the MBIC and MBEC values determined by the fluorescence and CV methods, similar to what we found in our previous work for an S. aureus MRSA strain [23]. We also re-evaluated the MBEC values that are measured using the Calgary biofilm device (CBD), where biofilms form on pegs, rather than at the bottom of the 96-well plates. […] In particular, we find that the single Pro9Ala Tritrp-P9A-substituted version has better MIC, MBIC and MBEC activities than the parent peptide as well as the Tritrp-P59A analog with both prolines substituted to Ala.
# as §4, §5, §3
# [10] = system: P. aeruginosa PAO1; format: cell-based, Pseudomonas aeruginosa; conditions: Table 5; PAO1, 1x BM2; biofilms on pegs, cells plated and counted; three biological replicates
# Experimental: as §6
# Figure 5 The MBEC values for the peptides were assessed against P. aeruginosa PAO1 in the presence of 1× BM2 medium. The eradication of biofilm cells was determined for the peptides using the counting of biofilm cells formed by Pa PAO1. Three biological replicates were run for each test sample, and the mean was calculated for counted cell values. Data points with error bars indicate the standard deviation (±SD).
# as §3
SMILES,MIC at 600 nm LD50 [1],MIC at 600 nm LD90 [1],MBIC at 488 and 530 nm LD50 [2],MBIC at 488 and 530 nm LD90 [2],MBEC at 488 and 530 nm LD50 [3],MBEC at 488 and 530 nm LD90 [3],MIC at 600 nm LD50 [4],MIC at 600 nm LD90 [4],MBIC at 488 and 530 nm LD50 [5],MBIC at 488 and 530 nm LD90 [5],MBEC at 488 and 530 nm LD50 [6],MBEC at 488 and 530 nm LD90 [6],MBC Agar Plate [7],MIC at 600 nm LD50 [8],MIC at 600 nm LD90 [8],MBRC (CV at 595 nm) LD50 [9],MBIC (CV at 595 nm) LD50 [9],MBIC (CV at 595 nm) LD90 [9],MBRC (CV at 595 nm) LD90 [9],MBEC from Calgary Biofilm Device (CBD) LD50 [10],also measured
CC(C)C[C@H](NC(=O)[C@H](Cc1ccccc1)NC(=O)[C@@H]1CCCN1C(=O)[C@H](Cc1c[nH]c2ccccc12)NC(=O)[C@H](Cc1c[nH]c2ccccc12)NC(=O)[C@H](Cc1c[nH]c2ccccc12)NC(=O)[C@H](C)NC(=O)[C@H](Cc1ccccc1)NC(=O)[C@H](CCCNC(=N)N)NC(=O)[C@H](CCCNC(=N)N)NC(=O)[C@@H](N)C(C)C)C(=O)N[C@@H](CCCNC(=N)N)C(=O)N[C@@H](CCCNC(=N)N)C(N)=O [Tritrp-P5A] (H-VRRFAWWWPFLRR-NH2),4 µmol/L,8 µmol/L,4 µmol/L,8 µmol/L,64 µmol/L,64 µmol/L,1 µmol/L,2 µmol/L,1 µmol/L,4 µmol/L,2 µmol/L,4 µmol/L,4 µmol/L,4 µmol/L,8 µmol/L,32 µmol/L,8 µmol/L,8 µmol/L,32 µmol/L,32 µmol/L,MBEC from Calgary Biofilm Device (CBD) LD90 [10]: 128 µmol/L
CC(C)C[C@H](NC(=O)[C@H](Cc1ccccc1)NC(=O)[C@H](C)NC(=O)[C@H](Cc1c[nH]c2ccccc12)NC(=O)[C@H](Cc1c[nH]c2ccccc12)NC(=O)[C@H](Cc1c[nH]c2ccccc12)NC(=O)[C@@H]1CCCN1C(=O)[C@H](Cc1ccccc1)NC(=O)[C@H](CCCCN)NC(=O)[C@H](CCCCN)NC(=O)[C@@H](N)C(C)C)C(=O)N[C@@H](CCCCN)C(=O)N[C@@H](CCCCN)C(N)=O [Tritrp-P9A-Lys] (H-VKKFPWWWAFLKK-NH2),4 µmol/L,8 µmol/L,8 µmol/L,8 µmol/L,4 µmol/L,64 µmol/L,1 µmol/L,4 µmol/L,2 µmol/L,4 µmol/L,1 µmol/L,8 µmol/L,8 µmol/L,4 µmol/L,8 µmol/L,32 µmol/L,8 µmol/L,16 µmol/L,64 µmol/L,64 µmol/L,MBEC from Calgary Biofilm Device (CBD) LD90 [10]: 64 µmol/L
CC(C)C[C@H](NC(=O)[C@H](Cc1ccccc1)NC(=O)[C@H](C)NC(=O)[C@H](Cc1c[nH]c2ccccc12)NC(=O)[C@H](Cc1c[nH]c2ccccc12)NC(=O)[C@H](Cc1c[nH]c2ccccc12)NC(=O)[C@H](C)NC(=O)[C@H](Cc1ccccc1)NC(=O)[C@H](CCCCN)NC(=O)[C@H](CCCCN)NC(=O)[C@@H](N)C(C)C)C(=O)N[C@@H](CCCCN)C(=O)N[C@@H](CCCCN)C(N)=O [Tritrp-P59A-Lys] (H-VKKFAWWWAFLKK-NH2),4 µmol/L,4 µmol/L,4 µmol/L,4 µmol/L,32 µmol/L,128 µmol/L,2 µmol/L,2 µmol/L,2 µmol/L,2 µmol/L,2 µmol/L,4 µmol/L,4 µmol/L,4 µmol/L,8 µmol/L,64 µmol/L,4 µmol/L,8 µmol/L,64 µmol/L,64 µmol/L,MBEC from Calgary Biofilm Device (CBD) LD90 [10]: 128 µmol/L
CC(C)C[C@H](NC(=O)[C@H](Cc1ccccc1)NC(=O)[C@@H]1CCCN1C(=O)[C@H](Cc1ccccc1)NC(=O)[C@H](Cc1ccccc1)NC(=O)[C@H](Cc1ccccc1)NC(=O)[C@@H]1CCCN1C(=O)[C@H](Cc1ccccc1)NC(=O)[C@H](CCCNC(=N)N)NC(=O)[C@H](CCCNC(=N)N)NC(=O)[C@@H](N)C(C)C)C(=O)N[C@@H](CCCNC(=N)N)C(=O)N[C@@H](CCCNC(=N)N)C(N)=O [Tritrp-W678F] (H-VRRFPFFFPFLRR-NH2),32 µmol/L,>64 µmol/L,32 µmol/L,64 µmol/L,32 µmol/L,64 µmol/L,0.5 µmol/L,0.5 µmol/L,1 µmol/L,1 µmol/L,2 µmol/L,4 µmol/L,8 µmol/L,32 µmol/L,>64 µmol/L,128 µmol/L,64 µmol/L,>64 µmol/L,>128 µmol/L,128 µmol/L,MBEC from Calgary Biofilm Device (CBD) LD90 [10]: 128 µmol/L
